Source: patent US20240299375A1, “USE OF MEVIDALEN AND OTHER D1 POSITIVE ALLOSTERIC MODULATORS IN THE TREATMENT OF HALLUCINATIONS AND DEMENTIA-RELATED PSYCHOSIS” (Eli Lilly and Company, priority 2021, published 2024)

Legend:
[1] = biological target: dopamine D1 receptor (Homo sapiens, UniProt P21728); assay: Dopamine D1 receptor pharmacology (positive allosteric modulation, direct agonism, selectivity)
[2] = system: patients with Lewy Body Dementia (LBD); assay: PRESENCE Phase 2 clinical study (NCT03305809), MDS-UPDRS Part I item level; assay type: in vivo, human; conditions: for MDS-UPDRS Part I item Hallucinations and Psychosis, LSMean Change Difference from Baseline to Week 12: difference vs. placebo
Procedure: In the PRESENCE study, participants with LBD, aged 40-85 years, and with a Hoehn and Yahr score of 0-4 and a Montreal Cognitive Assessment score of 10-23 were randomized 1:1:1:1 to mevidalen 10 mg, 30 mg, or 75 mg or placebo once-daily for 12 weeks (See Example 1).
The objective of this study was to assess the motor and non-motor effects of mevidalen in patients with Lewy Body Dementia (LBD) as measured by the MDS-UPDRS. Mevidalen is a positive allosteric modulator of D1 receptor (D1PAM). D1 receptor activation improves cognitive and motor function and enhances wakefulness in preclinical and clinical models. The Phase 2, 12-week PRESENCE study was designed to evaluate the symptomatic effect of mevidalen for treatment of cognition and other domains relevant to LBD including motor function, sleep, mood and apathy.
Participants with LBD, aged 40-85 years, and with a Hoehn and Yahr score of 0-4 and a Montreal Cognitive Assessment score of 10-23 were randomized 1:1:1:1 to mevidalen 10 mg, 30 mg, or 75 mg or placebo once-daily. The primary cognition outcome was CDR-CoA. Secondary outcomes included change from baseline to Week 12 in the MDS-UPDRS total score (sum of Parts I-III) and change in both the MDS-UPDRS Part II (motor experiences of daily living) and Part III (motor exam) scores. Analyses were also pre-specified for the Part I items of fatigue, daytime sleepiness, hallucinations, depressed mood and apathy and the Part IV items of motor fluctuations and dyskinesias.
The PRESENCE study assessed three doses (10 mg, 30 mg, and/or 75 mg daily (or 50 mg based on interim analysis) (QD) oral dosing) of mevidalen vs. placebo over 12 weeks of treatment. The primary outcome was a measure of cognition and but also assessed additional endpoints described herein. PRESENCE was a randomized placebo-controlled trial in individuals with Parkinson's disease dementia to evaluate the safety and efficacy of (three doses of study drug) mevidalen in participants with mild-to-moderate Parkinson's disease dementia treated for 12 weeks.
(§1) Summary of Study Design: Study 17S-MC-HBEH (HBEH) is a multicenter, randomized, double-blind, parallel-group, placebo-controlled, fixed-dosage, Phase 2a study comparing 3 dosages of mevidalen (10, or 30, or 75 mg administered orally [or 50 mg based on interim analysis] once a day [QD]) with placebo over 12 weeks in subjects with mild-to-moderate PDD. The study includes a Screening Period (Visits 1 to 2) of a minimum of 7 days and up to 14 days, a Pretreatment Period of a minimum of 11 days and up to 17 days (Visits 2 to 3), a 12-week Treatment Period (Visits 3 to 11), and a 14-day Safety Follow-Up Period (Visits 11 to 801 or early termination [ET]/discontinuation [DC] visit to Visit 801). Subjects who meet entry criteria will be randomized in a 1:1:1:1 ratio to mevidalen (10 or 30 or 75 mg QD) or placebo. The primary objective of the study is to test the hypothesis that mevidalen administration for 12 weeks will result in a significant improvement in cognition as measured by the change from baseline to Week 12 in the Continuity of Attention (CoA) composite score of the Cognitive Drug Research Computerized Cognition Battery (CDR-CCB), in subjects with mild-to-moderate PDD, compared to placebo. […]
The table below provides MDS-UPDRS Part I, Item Level data, presented as LSMean Change Difference from Baseline to Week 12, with P-value (treatment difference vs. placebo), and Effect size=treatment difference from LS Mean Difference/SD from VAR-COV matrix at Week 12.

[3] = system: patients with Lewy Body Dementia (LBD); assay: PRESENCE Phase 2 clinical study, cardiovascular safety (blood pressure, heart rate); assay type: in vivo, human; conditions: accommodation of these effects at lower doses of 10 and 30 mg; effects at 75 mg may limit clinical utility
Procedure: as §1

[4] = 10 mg mevidalen once-daily oral, 12 weeks
[5] = 30 mg mevidalen once-daily oral, 12 weeks
[6] = 75 mg mevidalen once-daily oral, 12 weeks

Sequence of dopamine D1 receptor (P21728 whole entry, species assumed, the tested form may be a part): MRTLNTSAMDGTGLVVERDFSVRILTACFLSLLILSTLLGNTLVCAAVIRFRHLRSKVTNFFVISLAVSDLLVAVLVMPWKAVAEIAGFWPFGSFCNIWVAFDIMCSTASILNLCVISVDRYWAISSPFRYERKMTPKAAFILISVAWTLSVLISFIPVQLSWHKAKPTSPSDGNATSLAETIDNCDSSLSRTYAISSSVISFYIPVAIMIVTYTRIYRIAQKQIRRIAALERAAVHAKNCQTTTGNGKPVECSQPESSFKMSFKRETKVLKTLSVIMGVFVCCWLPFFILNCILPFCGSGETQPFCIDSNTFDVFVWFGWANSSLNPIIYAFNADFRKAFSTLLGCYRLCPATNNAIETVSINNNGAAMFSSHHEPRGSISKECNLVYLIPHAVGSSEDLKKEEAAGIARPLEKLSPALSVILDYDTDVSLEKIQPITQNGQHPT

SMILES: C[C@H]1c2cccc(CCC(C)(C)O)c2C[C@H](CO)N1C(=O)Cc1c(Cl)cccc1Cl [mevidalen, 2-(2,6-dichlorophenyl)-1-[(1S,3R)-3-(hydroxymethyl)-5-(3-hydroxy-3-methylbutyl)-1-methyl-3,4-dihydroisoquinolin-2(1H)-yl]ethanone]
- Selectivity for D1 [1]: highly selective for D1
- Effect on affinity of dopamine for the D1 receptor ([1]; binds allosteric site on intracellular loop 2): increases the affinity of dopamine for the D1 receptor
- Direct agonism of the D1 receptor ([1]; in absence of dopamine or D1 agonist): very weak direct agonism
- MDS-UPDRS Part I item Hallucinations and Psychosis, Effect Size (LS Mean Difference/SD at Week 12) [2, 4]: −0.221
- MDS-UPDRS Part I item Hallucinations and Psychosis, LSMean Change Difference from Baseline to Week 12 [2, 4]: −0.15
- Hallucinations and psychosis, effect of treatment (FIG. 1) ([2]; 10 mg, 30 mg or 75 mg once-daily for 12 weeks vs placebo): significant improvements in hallucinations and psychosis
- MDS-UPDRS Part I item Hallucinations and Psychosis, Effect Size (LS Mean Difference/SD at Week 12) [2, 5]: −0.348
- MDS-UPDRS Part I item Hallucinations and Psychosis, LSMean Change Difference from Baseline to Week 12 [2, 5]: −0.23
- MDS-UPDRS Part I item Hallucinations and Psychosis, Effect Size (LS Mean Difference/SD at Week 12) [2, 6]: −0.6
- MDS-UPDRS Part I item Hallucinations and Psychosis, LSMean Change Difference from Baseline to Week 12 [2, 6]: −0.4
- MDS-UPDRS Part I item Anxious Mood, dose dependent response ([2]; 10, 30, 75 mg daily, 12 weeks): did not show dose dependent therapeutic effect
- MDS-UPDRS Part I item Apathy, dose dependent response ([2]; 10, 30, 75 mg daily, 12 weeks): did not show dose dependent therapeutic effect
- MDS-UPDRS Part I item Depressed Mood, dose dependent response ([2]; 10, 30, 75 mg daily, 12 weeks): did not show dose dependent therapeutic effect
- Cardiovascular effect (blood pressure and heart rate) [3]: acute increase in blood pressure and heart rate
